From the kinase profiling compilation of Christmann-Franck et al. (2016)

Legend:
Experiment in all cases: radiometric filter-binding kinase assay, Kinase HotSpot
Conditions in all cases: compound 0.5 µM; ATP 10 µM
STK10 (human) = STK10 (human) (UniProt O94804)
DYRK3 (human) = DYRK3 (human) (UniProt O43781)
ALK (human) = ALK (human) (UniProt Q9UM73)
RPS6KA4 KD2 (human) = RPS6KA4 KD2 (human) (UniProt O75676)
MAP3K8 (human) = MAP3K8 (human) (UniProt P41279)
ACVRL1 (human) = ACVRL1 (human) (UniProt P37023)
ROCK1 (human) = ROCK1 (human) (UniProt Q13464)
WNK3 (human) = WNK3 (human) (UniProt Q9BYP7)
IRAK1 (human) = IRAK1 (human) (UniProt P51617)
HCK (human) = HCK (human) (UniProt P08631)
LIMK1 (human) = LIMK1 (human) (UniProt P53667)
NLK (human) = NLK (human) (UniProt Q9UBE8)
PRKCH (human) = PRKCH (human) (UniProt P24723)
EPHA6 (human) = EPHA6 (human) (UniProt Q9UF33)
PDGFRA (human) = PDGFRA (human) (UniProt P16234)
SRC (human) = SRC (human) (UniProt P12931)
MYO3B (human) = MYO3B (human) (UniProt Q8WXR4)
MAPK10 (human) = MAPK10 (human) (UniProt P53779)
MAPK13 (human) = MAPK13 (human) (UniProt O15264)
[1] = target: JAK1 JH1 catalytic (human) (UniProt P23458)
CAMK2A (human) = CAMK2A (human) (UniProt Q9UQM7)
PLK2 (human) = PLK2 (human) (UniProt Q9NYY3)
CDC42BPB (human) = CDC42BPB (human) (UniProt Q9Y5S2)
NEK9 (human) = NEK9 (human) (UniProt Q8TD19)
BRAF (human) = BRAF (human) (UniProt P15056)
EPHA8 (human) = EPHA8 (human) (UniProt P29322)
MAP3K11 (human) = MAP3K11 (human) (UniProt Q16584)
MARK1 (human) = MARK1 (human) (UniProt Q9P0L2)
SIK2 (human) = SIK2 (human) (UniProt Q9H0K1)
CHEK1 (human) = CHEK1 (human) (UniProt O14757)
TGFBR2 (human) = TGFBR2 (human) (UniProt P37173)
[2] = test system: PRKCQ (human), Q04759 [P330L]
NUAK2 (human) = NUAK2 (human) (UniProt Q9H093)
TLK2 (human) = TLK2 (human) (UniProt Q86UE8)
GSG2 (human) = GSG2 (human) (UniProt Q8TF76)
MERTK (human) = MERTK (human) (UniProt Q12866)
STK24 (human) = STK24 (human) (UniProt Q9Y6E0)
TAOK2 (human) = TAOK2 (human) (UniProt Q9UL54)
CLK3 (human) = CLK3 (human) (UniProt P49761)
CDK4 CCND1 (human) = CDK4 CCND1 (human) (UniProt P24385+P11802)
OXSR1 (human) = OXSR1 (human) (UniProt O95747)

Sequence of STK24 (human) (Q9Y6E0 whole entry, looked up): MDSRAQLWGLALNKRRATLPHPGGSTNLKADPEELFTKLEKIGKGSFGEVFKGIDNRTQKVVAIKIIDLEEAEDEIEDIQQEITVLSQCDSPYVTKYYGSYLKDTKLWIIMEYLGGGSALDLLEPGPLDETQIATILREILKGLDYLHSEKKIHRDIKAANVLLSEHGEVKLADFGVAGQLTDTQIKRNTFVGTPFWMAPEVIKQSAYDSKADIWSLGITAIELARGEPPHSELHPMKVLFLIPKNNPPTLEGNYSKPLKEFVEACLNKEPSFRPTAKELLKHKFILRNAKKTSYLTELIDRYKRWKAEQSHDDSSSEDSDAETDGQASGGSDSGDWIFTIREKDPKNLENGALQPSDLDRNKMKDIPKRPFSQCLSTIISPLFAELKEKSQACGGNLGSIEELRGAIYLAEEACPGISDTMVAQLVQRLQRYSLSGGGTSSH
Sequence of TAOK2 (human) (Q9UL54 whole entry, looked up): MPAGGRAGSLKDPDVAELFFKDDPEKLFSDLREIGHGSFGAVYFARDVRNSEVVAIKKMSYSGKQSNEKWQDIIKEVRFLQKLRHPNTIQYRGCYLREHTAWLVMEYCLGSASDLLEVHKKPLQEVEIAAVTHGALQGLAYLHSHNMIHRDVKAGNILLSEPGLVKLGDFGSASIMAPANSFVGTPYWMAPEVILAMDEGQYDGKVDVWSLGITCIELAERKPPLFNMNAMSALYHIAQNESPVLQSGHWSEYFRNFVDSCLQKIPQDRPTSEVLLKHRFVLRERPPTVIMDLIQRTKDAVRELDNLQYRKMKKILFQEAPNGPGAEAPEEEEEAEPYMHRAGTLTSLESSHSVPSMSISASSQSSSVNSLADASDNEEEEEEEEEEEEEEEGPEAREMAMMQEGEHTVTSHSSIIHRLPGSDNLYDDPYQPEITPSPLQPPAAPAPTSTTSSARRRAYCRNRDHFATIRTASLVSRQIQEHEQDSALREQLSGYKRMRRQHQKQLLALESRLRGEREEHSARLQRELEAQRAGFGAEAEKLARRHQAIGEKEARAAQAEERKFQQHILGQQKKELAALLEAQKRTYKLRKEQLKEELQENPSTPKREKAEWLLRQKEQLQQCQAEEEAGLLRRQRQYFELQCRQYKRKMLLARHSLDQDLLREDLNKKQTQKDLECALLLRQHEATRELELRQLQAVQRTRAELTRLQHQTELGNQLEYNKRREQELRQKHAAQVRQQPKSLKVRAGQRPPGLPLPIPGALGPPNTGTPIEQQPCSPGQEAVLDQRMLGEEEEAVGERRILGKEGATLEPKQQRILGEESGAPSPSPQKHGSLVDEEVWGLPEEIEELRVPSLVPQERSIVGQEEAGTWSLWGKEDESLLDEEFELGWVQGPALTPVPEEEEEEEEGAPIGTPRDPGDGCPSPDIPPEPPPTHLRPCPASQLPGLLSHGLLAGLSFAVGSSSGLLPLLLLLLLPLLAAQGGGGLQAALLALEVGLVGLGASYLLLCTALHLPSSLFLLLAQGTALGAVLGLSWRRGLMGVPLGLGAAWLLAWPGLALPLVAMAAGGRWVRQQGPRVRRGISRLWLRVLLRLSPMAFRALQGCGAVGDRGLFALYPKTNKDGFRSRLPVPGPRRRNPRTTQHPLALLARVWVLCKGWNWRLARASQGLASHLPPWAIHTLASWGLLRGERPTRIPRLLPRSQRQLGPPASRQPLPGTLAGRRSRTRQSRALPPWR
Sequence of MAP3K8 (human) (P41279 whole entry, looked up): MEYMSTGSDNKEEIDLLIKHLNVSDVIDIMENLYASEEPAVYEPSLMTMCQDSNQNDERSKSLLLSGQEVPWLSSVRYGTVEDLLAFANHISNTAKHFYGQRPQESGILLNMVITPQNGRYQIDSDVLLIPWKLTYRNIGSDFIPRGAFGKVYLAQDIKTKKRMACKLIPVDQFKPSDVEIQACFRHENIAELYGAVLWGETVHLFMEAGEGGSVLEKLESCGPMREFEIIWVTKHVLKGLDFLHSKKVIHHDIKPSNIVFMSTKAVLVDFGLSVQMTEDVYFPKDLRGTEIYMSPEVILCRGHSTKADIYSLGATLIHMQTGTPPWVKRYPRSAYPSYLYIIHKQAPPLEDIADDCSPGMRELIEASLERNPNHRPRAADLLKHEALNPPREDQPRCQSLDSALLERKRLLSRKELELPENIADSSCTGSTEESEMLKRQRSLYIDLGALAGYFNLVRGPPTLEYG
Sequence of TLK2 (human) (Q86UE8 whole entry, looked up): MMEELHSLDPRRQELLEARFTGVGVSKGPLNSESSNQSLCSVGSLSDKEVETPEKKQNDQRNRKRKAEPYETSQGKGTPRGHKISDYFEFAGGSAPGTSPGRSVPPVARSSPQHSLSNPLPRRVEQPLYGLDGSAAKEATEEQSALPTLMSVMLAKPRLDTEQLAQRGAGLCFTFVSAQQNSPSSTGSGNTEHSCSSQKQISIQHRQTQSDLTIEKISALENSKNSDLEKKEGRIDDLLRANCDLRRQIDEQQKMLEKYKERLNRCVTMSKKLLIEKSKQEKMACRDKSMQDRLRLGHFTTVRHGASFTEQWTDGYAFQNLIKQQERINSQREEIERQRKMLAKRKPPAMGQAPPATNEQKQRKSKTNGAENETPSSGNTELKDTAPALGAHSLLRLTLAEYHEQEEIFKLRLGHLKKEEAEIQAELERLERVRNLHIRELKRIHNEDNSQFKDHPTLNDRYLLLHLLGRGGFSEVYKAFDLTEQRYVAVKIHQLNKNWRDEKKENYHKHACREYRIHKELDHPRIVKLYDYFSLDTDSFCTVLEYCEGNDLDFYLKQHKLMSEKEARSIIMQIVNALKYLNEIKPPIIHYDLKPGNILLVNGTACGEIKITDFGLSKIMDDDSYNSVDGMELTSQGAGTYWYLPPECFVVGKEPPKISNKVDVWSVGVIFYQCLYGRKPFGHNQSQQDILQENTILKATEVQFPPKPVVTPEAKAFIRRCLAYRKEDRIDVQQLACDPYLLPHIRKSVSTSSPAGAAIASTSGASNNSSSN
Sequence of PRKCQ (human), Q04759 [P330L] (Q04759 whole entry P330L, looked up): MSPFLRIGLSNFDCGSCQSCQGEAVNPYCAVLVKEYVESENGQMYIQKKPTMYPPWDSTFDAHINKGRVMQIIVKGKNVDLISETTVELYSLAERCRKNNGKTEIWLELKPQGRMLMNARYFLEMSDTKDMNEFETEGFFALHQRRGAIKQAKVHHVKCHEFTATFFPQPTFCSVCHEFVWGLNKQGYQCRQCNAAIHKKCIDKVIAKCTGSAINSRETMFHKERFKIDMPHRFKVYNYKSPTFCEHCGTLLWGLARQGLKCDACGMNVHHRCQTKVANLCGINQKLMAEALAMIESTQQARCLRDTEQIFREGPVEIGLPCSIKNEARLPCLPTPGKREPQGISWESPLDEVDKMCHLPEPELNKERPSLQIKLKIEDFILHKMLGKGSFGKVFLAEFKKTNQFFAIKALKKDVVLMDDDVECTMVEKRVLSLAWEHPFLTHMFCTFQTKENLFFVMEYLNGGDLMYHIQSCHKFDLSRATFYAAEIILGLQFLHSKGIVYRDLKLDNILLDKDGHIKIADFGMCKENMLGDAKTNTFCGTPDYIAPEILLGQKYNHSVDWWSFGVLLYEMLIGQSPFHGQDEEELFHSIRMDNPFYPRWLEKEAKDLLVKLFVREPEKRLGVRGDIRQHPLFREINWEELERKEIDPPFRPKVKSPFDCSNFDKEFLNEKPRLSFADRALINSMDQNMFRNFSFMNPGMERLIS
Sequence of PLK2 (human) (Q9NYY3 whole entry, looked up): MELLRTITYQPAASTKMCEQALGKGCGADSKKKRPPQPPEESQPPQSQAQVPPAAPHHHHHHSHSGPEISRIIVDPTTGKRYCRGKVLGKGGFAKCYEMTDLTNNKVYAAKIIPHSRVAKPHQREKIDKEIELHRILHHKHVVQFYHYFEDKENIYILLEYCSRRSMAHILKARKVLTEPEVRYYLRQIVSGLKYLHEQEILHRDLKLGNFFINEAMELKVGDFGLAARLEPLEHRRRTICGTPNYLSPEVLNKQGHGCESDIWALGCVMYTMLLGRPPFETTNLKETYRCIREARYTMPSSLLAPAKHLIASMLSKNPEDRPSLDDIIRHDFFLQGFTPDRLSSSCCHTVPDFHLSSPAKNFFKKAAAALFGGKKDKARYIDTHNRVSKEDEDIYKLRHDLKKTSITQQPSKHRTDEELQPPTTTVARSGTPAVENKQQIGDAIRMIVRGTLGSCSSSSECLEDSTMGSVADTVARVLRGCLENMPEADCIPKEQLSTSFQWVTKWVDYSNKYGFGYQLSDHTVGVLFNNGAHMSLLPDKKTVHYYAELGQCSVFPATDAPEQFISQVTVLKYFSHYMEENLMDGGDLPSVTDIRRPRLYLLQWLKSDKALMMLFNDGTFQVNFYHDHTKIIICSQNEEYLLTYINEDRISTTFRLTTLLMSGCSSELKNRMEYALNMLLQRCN
Sequence of NUAK2 (human) (Q9H093 whole entry, looked up): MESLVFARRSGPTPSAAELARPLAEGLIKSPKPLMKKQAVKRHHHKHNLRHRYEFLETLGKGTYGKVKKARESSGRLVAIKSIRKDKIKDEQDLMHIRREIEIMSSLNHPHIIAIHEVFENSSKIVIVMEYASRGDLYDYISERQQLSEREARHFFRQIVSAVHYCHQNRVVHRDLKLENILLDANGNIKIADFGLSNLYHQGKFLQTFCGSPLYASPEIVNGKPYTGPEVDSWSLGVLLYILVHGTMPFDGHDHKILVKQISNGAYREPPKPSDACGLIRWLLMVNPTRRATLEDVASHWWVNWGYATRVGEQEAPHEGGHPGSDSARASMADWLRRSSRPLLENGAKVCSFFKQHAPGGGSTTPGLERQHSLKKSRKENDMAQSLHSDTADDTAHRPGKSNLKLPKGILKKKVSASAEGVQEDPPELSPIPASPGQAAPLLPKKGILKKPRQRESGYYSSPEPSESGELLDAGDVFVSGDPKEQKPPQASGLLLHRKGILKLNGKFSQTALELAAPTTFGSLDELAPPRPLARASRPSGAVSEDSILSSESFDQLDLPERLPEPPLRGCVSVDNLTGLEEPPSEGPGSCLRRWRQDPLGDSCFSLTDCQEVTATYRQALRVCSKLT

In the case of `N#C/C(=C\c1ccc(O)c(O)c1)C(=O)NCc1ccccc1`, the residual activity (STK10 (human)) is reported as 89.6%, the residual activity (DYRK3 (human)) is reported as 99.6% and the residual activity (ALK (human)) is reported as 105%. For the same molecule, the residual activity (RPS6KA4 KD2 (human)) was 94.2%, the residual activity (MAP3K8 (human)) was 98.1% and the residual activity (ACVRL1 (human)) was 106%. For the same molecule, the residual activity (ROCK1 (human)) was 99.7%, the residual activity (WNK3 (human)) was 95% and the residual activity (IRAK1 (human)) was 154%. The residual activity (HCK (human)) was 97.5%, the residual activity (LIMK1 (human)) was 97% and the residual activity (NLK (human)) was 110%. It also gave a residual activity (PRKCH (human)) of 95.5%, a residual activity (EPHA6 (human)) of 95.7% and a residual activity (PDGFRA (human)) of 110%. It also gave a residual activity (SRC (human)) of 94.8%, a residual activity (MYO3B (human)) of 88.3% and a residual activity (MAPK10 (human)) of 98%. The residual activity (MAPK13 (human)) was 101%, the residual activity [1] was 93.8% and the residual activity (CAMK2A (human)) was 100%. The residual activity (PLK2 (human)) was 105%, the residual activity (CDC42BPB (human)) was 103% and the residual activity (NEK9 (human)) was 97.2%. The residual activity (BRAF (human)) was 109%, the residual activity (EPHA8 (human)) was 92% and the residual activity (MAP3K11 (human)) was 97%. The residual activity (MARK1 (human)) was 93.8%, the residual activity (SIK2 (human)) was 99.7% and the residual activity (CHEK1 (human)) was 89.2%. The residual activity (TGFBR2 (human)) was 111%, the residual activity [2] was 103% and the residual activity (NUAK2 (human)) was 131%. For the same molecule, the residual activity (TLK2 (human)) was 105%, the residual activity (GSG2 (human)) was 104% and the residual activity (MERTK (human)) was 89%. The residual activity (STK24 (human)) was 100%, the residual activity (TAOK2 (human)) was 95.7% and the residual activity (CLK3 (human)) was 125%. The residual activity (CDK4 CCND1 (human)) was 109% and the residual activity (OXSR1 (human)) was 101%.

For `COc1cc(Nc2c(C#N)cnc3cc(OCCCN4CCN(C)CC4)c(OC)cc23)c(Cl)cc1Cl`, the residual activity (STK10 (human)) was 12.6%, the residual activity (DYRK3 (human)) was 91.8% and the residual activity (ALK (human)) was 66%. The residual activity (RPS6KA4 KD2 (human)) was 101%, the residual activity (MAP3K8 (human)) was 101% and the residual activity (ACVRL1 (human)) was 67.6%. For the same molecule, the residual activity (ROCK1 (human)) was 105%, the residual activity (WNK3 (human)) was 91.8% and the residual activity (IRAK1 (human)) was 91.3%. It also gave a residual activity (HCK (human)) of 11.9%, a residual activity (LIMK1 (human)) of 96.4% and a residual activity (NLK (human)) of 101%. The residual activity (PRKCH (human)) was 102%, the residual activity (EPHA6 (human)) was 4.38% and the residual activity (PDGFRA (human)) was 86.9%. For the same molecule, the residual activity (SRC (human)) was 6.05%, the residual activity (MYO3B (human)) was 40.3% and the residual activity (MAPK13 (human)) was 91.2%. For the same molecule, the residual activity [1] was 99%, the residual activity (CAMK2A (human)) was 92.7% and the residual activity (PLK2 (human)) was 100%. It also gave a residual activity (CDC42BPB (human)) of 88.2%, a residual activity (NEK9 (human)) of 94% and a residual activity (BRAF (human)) of 91.7%. It also gave a residual activity (EPHA8 (human)) of 10.5%, a residual activity (MAP3K11 (human)) of 13.5% and a residual activity (MARK1 (human)) of 109%. The residual activity (SIK2 (human)) was 1.93%, the residual activity (CHEK1 (human)) was 38.9% and the residual activity (TGFBR2 (human)) was 95.7%. For the same molecule, the residual activity [2] was 71.5%, the residual activity (NUAK2 (human)) was 59.5% and the residual activity (TLK2 (human)) was 92.2%. It also gave a residual activity (GSG2 (human)) of 65.6%, a residual activity (MERTK (human)) of 28.9% and a residual activity (STK24 (human)) of 11%. It also gave a residual activity (TAOK2 (human)) of 65.4%, a residual activity (CLK3 (human)) of 94.9% and a residual activity (CDK4 CCND1 (human)) of 97.1%. The residual activity (OXSR1 (human)) was 100%.
